Data published in patent publication US20210401929A1 (Northeast Normal University, priority 2020, published 2021).

Test system: lung inflammation mice model
Test: LPS lung inflammation mice model, inflammatory factor mRNA in lung by real-time PCR
Format: in vivo
Conditions: intranasal, peptide alone without LPS

**Q.** How did the “inflammation in the lungs of mice treated with peptide alone (inflammatory factor mRNA)” value turn out when N=C(N)NCCC[C@H](NC(=O)[C@H](CCCNC(=N)N)NC(=O)[C@H](CCCNC(=N)N)NC(=O)[C@H](CCC(N)=O)NC(=O)[C@H](CCCNC(=N)N)NC(=O)[C@H](CCCNC(=N)N)NC(=O)[C@H](CCCCN)NC(=O)[C@H](CCCCN)NC(=O)[C@H](CCCNC(=N)N)NC(=O)CNC(=O)[C@@H](N)Cc1ccc(O)cc1)C(=O)O [TAT] was run?
**A.** do not cause inflammation
